Measured values: patent publication US20240124504A1, “AROMATIC HETEROCYCLIC COMPOUND, AND PHARMACEUTICAL COMPOSITION AND APPLICATION THEREOF” (GT APEIRON THERAPEUTICS LIMITED, priority 2020, published 2024)
pIC50: −log10 of the molar value.

Legend:
[1] = target: CDK7/cyclinH/MAT1 complex (Homo sapiens, UniProt P50613); assay: In-vitro enzymatic inhibitory activity testing, CDK7 inhibition assay (Caliper EZ Reader II); type: biochemical; conditions: CDK7/cyclinH/MAT1 6 nM, 180 min at 27° C.
Summary of the method: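 Enzyme preincubated 10 min with compound, then peptide substrate plus ATP added in 80 mM MES pH 6.5, 10 mM MgCl2 buffer; 180 min at 27 °C, stopped with EDTA.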

CDK9/cyclinT1 complex = CDK9/cyclinT1 complex (Homo sapiens, UniProt P50750); assay: In-vitro enzymatic inhibitory activity testing, CDK9 inhibition assay (Caliper EZ Reader II); type: biochemical; conditions: CDK9/cyclinT1 8 nM, 180 min at 27° C.
CDK9/cyclinT1 complex, sequence (P50750 whole entry, species assumed): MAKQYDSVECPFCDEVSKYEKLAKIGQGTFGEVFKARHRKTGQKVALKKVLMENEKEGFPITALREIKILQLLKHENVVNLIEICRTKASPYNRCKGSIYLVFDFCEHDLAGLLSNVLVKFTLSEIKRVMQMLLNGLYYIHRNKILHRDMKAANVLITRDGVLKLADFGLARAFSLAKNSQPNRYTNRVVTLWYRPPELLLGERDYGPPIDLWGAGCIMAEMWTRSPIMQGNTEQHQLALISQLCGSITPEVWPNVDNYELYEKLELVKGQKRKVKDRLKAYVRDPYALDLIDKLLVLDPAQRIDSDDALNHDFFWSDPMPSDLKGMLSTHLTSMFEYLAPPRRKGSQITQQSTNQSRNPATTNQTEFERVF
CDK9/cyclinT1 complex, sequence (O60563 whole entry partner, species assumed): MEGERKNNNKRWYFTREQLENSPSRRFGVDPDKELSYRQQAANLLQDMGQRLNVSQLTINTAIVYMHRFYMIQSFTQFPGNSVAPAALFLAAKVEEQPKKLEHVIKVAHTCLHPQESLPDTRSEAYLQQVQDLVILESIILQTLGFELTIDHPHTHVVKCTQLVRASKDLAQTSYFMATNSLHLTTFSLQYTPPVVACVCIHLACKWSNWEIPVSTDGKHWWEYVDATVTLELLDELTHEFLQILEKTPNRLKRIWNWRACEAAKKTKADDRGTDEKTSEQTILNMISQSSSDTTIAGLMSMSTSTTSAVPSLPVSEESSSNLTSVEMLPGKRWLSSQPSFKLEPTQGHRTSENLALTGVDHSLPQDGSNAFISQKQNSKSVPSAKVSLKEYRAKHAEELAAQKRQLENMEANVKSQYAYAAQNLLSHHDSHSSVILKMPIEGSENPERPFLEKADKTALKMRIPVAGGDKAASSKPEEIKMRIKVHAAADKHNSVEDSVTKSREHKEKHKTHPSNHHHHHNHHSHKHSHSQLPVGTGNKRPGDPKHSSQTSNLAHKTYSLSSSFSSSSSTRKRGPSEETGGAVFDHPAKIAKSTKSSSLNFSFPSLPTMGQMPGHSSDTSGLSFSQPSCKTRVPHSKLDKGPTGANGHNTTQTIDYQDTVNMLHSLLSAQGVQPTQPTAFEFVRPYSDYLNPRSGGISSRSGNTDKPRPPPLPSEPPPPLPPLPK
Summary of the method: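 Phosphorylated and unphosphorylated fluorescent peptide were resolved by mobility-shift electrophoresis, with IC50 taken from a nonlinear regression of dose-response data. Reactions ran 180 min at 27 °C in MES buffer pH 6.5 with MgCl2, after 10 min enzyme–compound preincubation, using 8 nM CDK9/cyclinT1 and 5-FAM-CDK9tide.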

ovarian cancer A2780 = assay: Cell biological activity detection (CyQuant, 72 hours), A2780; type: cell-based, human; conditions: Homo sapiens, A2780, 72 h, A2780 cells, incubation for 72 hours
Summary of the method: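 IC50 derived from CyQuant Direct nuclear staining (488 nm excitation) after 72 h compound exposure at 37 °C, 5% CO2. Compounds tested in 9 concentrations from 10 μM, 1:4 steps, 0.2% DMSO, on A2780 or HCC70 cells plated overnight at 2000/well in RPMI 1640 + 10% FBS.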

[2] = Caco-2 membrane permeability and efflux rate; type: in vitro ADME; conditions: human, Caco-2, Caco-2, 5 μM; for Papp B→A at 2 h, 5 μM: basal end to top end; for efflux ratio at 2 h, 5 μM: read-out: ER (efflux rate); for Papp A→B at 2 h, 5 μM: top end to basal end
Protocol: The recovered Caco-2 cell suspension was seeded into a […] plate and cultured for 14-18 days. After being cultured for 14 days, the cells were fused and differentiated to be ready for a transport experiment. The Caco-2 cell plate was taken out from the incubator. Stock solutions of a to-be-tested compound and a control compound were formulated with DMSO and diluted with an HBSS (10 mM HEPES, pH 7.4) buffer to a final concentration of 5 μM. A test compound solution and a control drug solution were added to each well (top end) of an insert culture plate, and the HBSS (10 mM HEPES, pH 7.4) buffer was added to each well of a test compound receiving plate (basal end). When measuring the transport rate of the compound from the basal end to the top end, the test compound solution and the control drug solution were added to each well of the receiving plate (basal end), the HBSS (10 mM HEPES, pH 7.4) buffer solution was added to each well (top end) of the insert culture plate for the test compound solution, and incubation was carried out for 2 hours in a CO2 incubator at 37° C. After the transport experiment was completed, vortexing was carried out for 10 minutes at 1000 rpm. After sample quenching at each time point, LC/MS/MS analysis was carried out. A fluorescence value was measured after a two-hour transport experiment, a lucifer yellow solution was added in a transwell chamber (top end), a transport buffer solution was added in the basal end, and incubation was carried out for 30 minutes in the CO2 incubator at 37° C. The solution was taken out directly from the top end and the basal end (using basolateral wells) and transferred to a new 96-well plate. A cell fluorescence value was measured by a microplate reader (to detect membrane integrity), an excitation wavelength was […], and an emission wavelength was […]. All data were calculated by using Microsoft Excel, and a peak area was calculated according to chromatograms. An apparent permeability coefficient (Papp, unit: 10-6, cm/s) and an efflux rate (ER) of the compounds in Caco-2 cells were calculated by the specific concentrations of a receiving end and an administering end.

CDK7/cyclinH/MAT1 complex, sequence (P50613 whole entry, species assumed): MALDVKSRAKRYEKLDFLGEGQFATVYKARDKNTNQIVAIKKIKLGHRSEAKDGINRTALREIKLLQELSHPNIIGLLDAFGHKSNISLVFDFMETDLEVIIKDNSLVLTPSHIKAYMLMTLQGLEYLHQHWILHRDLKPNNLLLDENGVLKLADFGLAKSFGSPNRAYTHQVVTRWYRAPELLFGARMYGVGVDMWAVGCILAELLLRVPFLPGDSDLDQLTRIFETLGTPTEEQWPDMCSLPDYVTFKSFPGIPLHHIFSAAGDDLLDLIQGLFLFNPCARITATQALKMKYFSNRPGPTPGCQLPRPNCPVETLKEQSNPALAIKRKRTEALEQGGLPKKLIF
CDK7/cyclinH/MAT1 complex, sequence (P51946 whole entry partner, species assumed): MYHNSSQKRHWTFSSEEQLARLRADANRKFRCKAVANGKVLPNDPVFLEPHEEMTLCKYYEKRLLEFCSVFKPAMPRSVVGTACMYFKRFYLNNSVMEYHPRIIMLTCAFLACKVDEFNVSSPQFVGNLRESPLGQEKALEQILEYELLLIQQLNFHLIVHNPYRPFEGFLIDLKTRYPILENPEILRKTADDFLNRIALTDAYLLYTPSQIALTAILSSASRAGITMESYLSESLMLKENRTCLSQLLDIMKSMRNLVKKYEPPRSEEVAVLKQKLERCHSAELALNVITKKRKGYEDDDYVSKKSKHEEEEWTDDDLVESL
CDK7/cyclinH/MAT1 complex, sequence (P51948 whole entry partner, species assumed): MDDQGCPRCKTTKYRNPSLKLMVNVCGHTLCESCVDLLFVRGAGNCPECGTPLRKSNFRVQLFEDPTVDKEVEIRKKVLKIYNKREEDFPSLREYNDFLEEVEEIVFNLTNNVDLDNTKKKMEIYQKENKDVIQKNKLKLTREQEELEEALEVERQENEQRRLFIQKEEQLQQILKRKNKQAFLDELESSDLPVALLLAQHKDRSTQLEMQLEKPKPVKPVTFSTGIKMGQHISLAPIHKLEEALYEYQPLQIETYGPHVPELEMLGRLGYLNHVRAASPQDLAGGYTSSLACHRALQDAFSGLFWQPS

Row | Structure (SMILES) | pIC50 [1] | pIC50 (CDK9/cyclinT1 complex) | pIC50 (ovarian cancer A2780) | Papp B→A at 2 h, 5 μM [2] [×10⁻⁶ cm/s] | efflux ratio at 2 h, 5 μM [2] | Papp A→B at 2 h, 5 μM [2] [×10⁻⁶ cm/s]
1 | C[C@@H](CO)Nc1ncc(C(F)(F)F)c(-c2c[nH]c3c(P(C)(C)=O)cc(F)cc23)n1 [Compound 158] | > 7.70 | < 4.30 | > 7.70 | 28.6 | 5.65 | 5.07
2 | CP(C)(=O)c1cccc2c(-c3nc(N[C@H]4CC[C@@H]4O)ncc3C(F)(F)F)c[nH]c12 [Compound 154, (3-(2-(((1S,2S)-2-hydroxycyclobutyl)amino)-5-(trifluoromethyl)pyrimidin-4-yl)-1hydro-indole-7-yl)dimethylphosphine oxide] | > 7.70 | 4.30 to 5.30 | > 7.70 | 26.4 | 5.97 | 4.42
3 | CC(C)(CO)Nc1ncc(C(F)(F)F)c(-c2c[nH]c3c(P(C)(C)=O)cccc23)n1 [Compound 85, (3-(2-((1-hydroxy-2-methylpropan-2-yl)amino)-5-(trifluoromethyl)pyrimidin-4-yl)-1H-indole-7-yl)dimethylphosphine oxide] | > 7.70 | < 4.30 | > 7.70 | 21.3 | 2.77 | 7.69
4 | CP(C)(=O)c1cccc2c(-c3nc(NC[C@H]4C[C@](C)(O)C4)ncc3C(F)(F)F)c[nH]c12 [Compound 127, (3-(2-(((trans-3-hydroxy-3-methylcyclobutyl)methyl)amino)-5-(trifluoromethyl)pyrimidin-4-yl)-1H-indole-7-yl)dimethylphosphine oxide] | > 7.70 | < 4.30 | > 7.70 | 22.4 | 5.86 | 3.82
5 | CP(C)(=O)c1cccc2c(-c3nc(NC4(CO)CCC4)ncc3C(F)(F)F)c[nH]c12 [Compound 168, (3-(2-((1-(hydroxymethyl)cyclobutyl)amino)-5-(trifluoromethyl)pyrimidin-4-yl)-1H-indole-7-yl)dimethylphosphine oxide] | > 7.70 | < 4.30 | 6.70 to 7.70 | 17.1 | 2.14 | 7.99
6 | CC(O)[C@H](C)Nc1ncc(C(F)(F)F)c(-c2c[nH]c3c(P(C)(C)=O)cccc23)n1 (single isomer, unassigned) [Compound 129] | > 7.70 | < 4.30 | 6.70 to 7.70 | 32.4 | 6.76 | 4.8
7 | CP(C)(=O)c1cccc2c(-c3nc(N[C@H]4CC[C@H](O)C4)ncc3C(F)(F)F)c[nH]c12 [Compound 83] | > 7.70 | 4.30 to 5.30 | > 7.70 | 32.4 | 16.3 | 1.99
8 | CC[C@@H](CO)Nc1ncc(C(F)(F)F)c(-c2c[nH]c3c(P(C)(C)=O)cccc23)n1 [Compound 88, (S)-(3-(2-((1-hydroxybutan-2-yl)amino)-5-(trifluoromethyl)pyrimidin-4-yl)-1H-indole-7-yl)dimethylphosphine oxide] | > 7.70 | < 4.30 | > 7.70 | 29.2 | 7.77 | 3.76
9 | CP(C)(=O)c1cccc2c(-c3nc(NC4(CO)CC4)ncc3C(F)(F)F)c[nH]c12 [Compound 94, (3-(2-((1-(hydroxymethyl)cyclopropyl)amino)-5-(trifluoromethyl)pyrimidin-4-yl)-1H-indole-7-yl)dimethylphosphine oxide] | 6.70 to 7.70 | < 4.30 | > 7.70 | 31.4 | 12.5 | 2.51
10 | C[C@@H](CO)Nc1ncc(C(F)(F)F)c(-c2c[nH]c3c(P(C)(C)=O)cccc23)n1 [Compound 82, (S)-(3-(2-((1-hydroxypropyl-2-yl)amino)-5-(trifluoromethyl)pyrimidin-4-yl)-1H-indole-7-yl)dimethylphosphine oxide] | > 7.70 | < 4.30 | > 7.70 | 23.6 | 3.95 | 5.32
